Laboratory results: patent publication US12486298B2, “Fucosyltransferase specific inhibition using fucose mimetics” (THE FLORIDA INTERNATIONAL UNIVERSITY BOARD OF TRUSTEES, priority 2020, dated 2025)

Assays:
[1] = target: T1, fucosyltransferase VII (FTVII) (Homo sapiens, UniProt Q11130); assay: FTVII exofucosylation of mesenchymal stem cells (MSC), sLe^x by flow cytometry; assay type: cell-based; settings: MSCs
T1 sequence (Q11130 37-342 limits assumed): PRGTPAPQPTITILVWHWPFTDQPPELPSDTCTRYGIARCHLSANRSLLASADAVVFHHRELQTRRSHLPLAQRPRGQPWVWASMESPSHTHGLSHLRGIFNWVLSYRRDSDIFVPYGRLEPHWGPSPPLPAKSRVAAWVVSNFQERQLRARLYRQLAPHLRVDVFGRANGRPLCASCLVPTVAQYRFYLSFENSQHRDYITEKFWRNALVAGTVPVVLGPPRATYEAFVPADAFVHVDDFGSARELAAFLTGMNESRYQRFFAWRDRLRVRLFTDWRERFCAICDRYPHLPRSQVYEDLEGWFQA
Description: A Canto II (BD Biosciences) flow cytometer was utilized for flow cytometry and the data acquired was analyzed using FlowJo Software (Treestar). Cells were stained using antibodies specific to sLe^X (Alexa-Fluor 488 Mouse Anti-Human CD15s (BD Biosciences)), or Le^X (APC anti-human CD15 (SSEA-1) Antibody (BioLegend)).
Cells of the RPMI-8402 cell line and MSC cell line were treated with either 0.3 ug of fucosyltransferase VI (FTVI), 2.7 ug of fucosyltransferase VII (FTVII), 1.0 ug fucosyltransferase IX (FTIX) or buffer-only at 37° C. for 60 minutes. All reactions contained at 1×10^6 cells/30 ul in HBSS with 10 mM Hepes, 0.1% Human Serum Albumin, and 1.0 mM GDP fucose (GDP-Fuc) (Carbosynth) and the appropriate fucosytransferase. Then, mimetic 1 was added to each of the treatment groups in molar equivalents with respect to GDP-Fuc with each of the fucosytransferases. […]
Mimetic 1 (FIG. 1) was tested as an inhibitor of FT-mediated exofucosylation on these cells and the extent of fucosylation was monitored using antibodies that detect the creation of the relevant fucosylated epitopes, i.e., sLe^x or Le^x. […]

[2] = target: T2, human fucose-binding DC-SIGN lectin (Homo sapiens, UniProt Q9NNX6); assay: Recognition by DC-SIGN lectin
T2 sequence (Q9NNX6 1-404): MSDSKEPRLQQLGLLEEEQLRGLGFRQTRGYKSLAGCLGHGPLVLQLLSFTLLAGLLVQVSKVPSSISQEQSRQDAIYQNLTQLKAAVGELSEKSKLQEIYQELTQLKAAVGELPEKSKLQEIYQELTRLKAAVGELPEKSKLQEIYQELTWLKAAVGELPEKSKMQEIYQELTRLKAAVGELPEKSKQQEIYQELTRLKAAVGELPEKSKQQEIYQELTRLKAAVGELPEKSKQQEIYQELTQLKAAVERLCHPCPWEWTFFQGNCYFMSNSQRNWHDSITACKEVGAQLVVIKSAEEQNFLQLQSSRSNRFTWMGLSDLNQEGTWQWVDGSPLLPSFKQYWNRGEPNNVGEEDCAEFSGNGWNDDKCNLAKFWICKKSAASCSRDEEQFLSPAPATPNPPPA

[3] = tested on: E-selectin bearing HUVEC; assay: Parallel plate flow chamber: exofucosylated RPMI-8402 cells on TNFα-stimulated HUVEC under shear; assay type: cell-based, human; settings: for number of interacting RPMI-8402 cells on HUVEC: shear 0.5-8 dynes/cm^2
Description: Human umbilical vein endothelial cells (HUVEC, Lonza) were cultured in Endothelial Cell Growth Media (R&D Systems) in Bioflux microfluidic chambers that had been previously coated with 250 ug/ml fibronectin (BD Biosciences). Then 4 hours prior to rolling assay, cells were activated with 40 ng/ml TNFα (R&D Systems). Different cell subsets, based on exofucoslylation/mimetic conditions, were then infused into the chamber at a concentration of 2×10^6/ml and shear stress was applied from 0.5-8 dynes/cm^2. Then RPMI-8402 subsets were loaded into chambers containing monolayers of E-selectin bearing HUVECs with an initial shear rate of 0.5 dyne/cm^2, with stepwise increments in the shear rate up to 8 dynes/cm^2. The number of tethering/interacting RPMI-8402 cells on HUVEC were quantified at each shear rate and averaged across three different fields of view.
As sLe^x is the primary ligand for E-selectin which is induced on endothelial cells by inflammatory cytokine, e.g., TNFα the biological impacts of mimetic 1's inhibition of sLe^x binding to E-selectin under hemodynamic shear was evaluated. To this end, RPMI-8402 cells were left untreated or exofucosylated with 1.0 mM GDP-Fuc, 1.0 mM GDP-Fuc and 2.0 mM mimetic 1 or preincubated with FTVI and 2.0 mM mimetic 1 for 45 min followed by addition of 1.0 mM GDP-Fuc for 1 h and the presence of sLe^x determined by flow cytometry (FIGS. 6A and 6B). The RPMI-8402 cells treated as outlined above were then loaded in a parallel plate flow chamber seeded with monolayers of human umbilical vein endothelial cells (HUVEC) that had been stimulated with TNFα (FIG. 6C). The RPMI cells were introduced under defined fluid shear conditions to determine inhibition.

CC1OC2Oc3ccc(CC(=O)O)cc3SC2C(O)C1O (stereo not drawn) [mimetic 1]
inhibition of FTVII sLe^x production ([1]; 1.0 mM GDP-Fuc with 1.0 mM or 2.0 mM mimetic 1): inhibition was clear | level of FTVII inhibition in pre-incubation reactions ([1]; pre-incubation with 2.0 mM mimetic 1, then 1.0 mM GDP-Fuc): stronger | recognition by DC-SIGN lectin [2]: not recognized | number of interacting RPMI-8402 cells on HUVEC ([3]; exofucosylated with FTVI, 1.0 mM GDP-Fuc and 2.0 mM mimetic 1): reduced the number of interacting cells | ability of cells to adhere to HUVEC ([3]; physiologically relevant shear conditions): reduced the ability of cells to adhere to HUVEC | number of interacting RPMI-8402 cells on HUVEC ([3]; preincubation with FTVI and 2.0 mM mimetic 1 for 45 min, then 1.0 mM GDP-Fuc for 1 h): reduced the number of interacting cells
